In ChEMBL document CHEMBL1144056, “Characterization of 6-epi-3-anhydroophiobolin B from Cochliobolus heterostrophus” (J Nat Prod, 1999) one finds IC50 data, which are given here for one molecule.

In brackets after ≈: the same amount, converted by molar mass.

In general, IC50 refers to the concentration that inhibits the measured activity by half. Low readings indicate greater potency, high ones weaker potency.

The test system of one assay is A549. Put plainly: Cytotoxicity against human A549 cells. The assay is classed as functional, cell-based.
Another assay relates to HT-29. The assay can be described thus: Cytotoxicity against human HT-29 cells. The class given is functional, cell-based.
The nature of assay [1]: Cytotoxicity against human Mel20 cells. The assay is classed as functional, cell-based.
The test system of a further assay is P388. Put plainly: Cytotoxicity against mouse P388 cells. The assay is classed as functional, cell-based.
For assay [2], the system named is Plasmodium falciparum. Put plainly: Antimalarial activity against Plasmodium falciparum D6. The assay is classed as functional, organism-based.
For assay [3], the system named is Plasmodium falciparum. Put plainly: Antimalarial activity against Plasmodium falciparum W2. The assay is classed as functional, organism-based.

As for `CC(C)=C[C@H]1C[C@H](C)[C@]2(CC[C@]3(C)C[C@H]4[C@H](C(=O)C[C@@]4(C)O)/C(C=O)=C\C[C@H]32)O1` [OPHIOBOLIN A], the IC50 in the assay on A549 was 0.05 µg/mL (≈ 0.125 µM); in the assay with HT-29, 0.05 µg/mL (≈ 0.125 µM); in assay [1], 0.05 µg/mL (≈ 0.125 µM); in the assay with P388, 0.025 µg/mL (≈ 0.0624 µM); in the assay with Plasmodium falciparum [2], below 0.529 µg/mL; in the assay on Plasmodium falciparum [3], 0.58 µg/mL (≈ 1.45 µM).
